Test results reported in ChEMBL document CHEMBL1201862, “PubChem BioAssay data set” (2004).
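48-hour exposure; five concentrations; linearly interpolated endpoints. GI50: concentration for 50% inhibition of growth.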 The source made the active and inactive calls. No stated cut-off is given here; in the data, active = GI50 up to about 1.1 µM and inactive = higher.

Legend:
Experiment in all cases: growth of human tumour cells (NCI), 48 h
CCRF-CEM = system: CCRF-CEM
OVCAR-8 = system: OVCAR-8
CAKI-1 = system: CAKI-1
RPMI-8226 = system: RPMI-8226
HOP-92 = system: HOP-92
MOLT-4 = system: MOLT-4
NCI-H226 = system: NCI-H226
SK-OV-3 = system: SK-OV-3
KM12 = system: KM12
SW-620 = system: SW-620
IGROV-1 = system: IGROV-1
Malme-3M = system: Malme-3M
OVCAR-4 = system: OVCAR-4
OVCAR-5 = system: OVCAR-5
COLO 205 = system: COLO 205
U-251 = system: U-251
SNB-75 = system: SNB-75

Structure (SMILES)	GI50 (CCRF-CEM)	GI50 (OVCAR-8)	GI50 (CAKI-1)	GI50 (RPMI-8226)	GI50 (HOP-92)	GI50 (MOLT-4)	GI50 (NCI-H226)	GI50 (SK-OV-3)	GI50 (KM12)	GI50 (SW-620)	GI50 (IGROV-1)	GI50 (Malme-3M)	GI50 (OVCAR-4)	GI50 (OVCAR-5)	GI50 (COLO 205)	GI50 (U-251)	GI50 (SNB-75)
CC1=NN(C(=O)c2ccc(Cl)cc2)C(=O)/C1=C/c1cccc(O)c1	> 100 µM (inactive)	> 100 µM (inactive)	> 100 µM (inactive)	> 100 µM (inactive)	> 100 µM (inactive)	> 100 µM (inactive)	> 100 µM (inactive)	> 100 µM (inactive)	> 100 µM (inactive)	> 100 µM (inactive)	> 100 µM (inactive)	> 100 µM (inactive)	> 100 µM (inactive)	> 100 µM (inactive)	> 100 µM (inactive)	> 100 µM (inactive)	
O=C1C(Cl)=C(Cl)C(=O)N1c1ccc(Cl)c(Cl)c1Cl	21.7 µM (inactive)		25.5 µM (inactive)	34 µM (inactive)	24.7 µM (inactive)	32.6 µM (inactive)	> 100 µM (inactive)	> 100 µM (inactive)	> 100 µM (inactive)	35.5 µM (inactive)	> 100 µM (inactive)	31.6 µM (inactive)	28.4 µM (inactive)	> 100 µM (inactive)	29.9 µM (inactive)	> 100 µM (inactive)	> 100 µM (inactive)
CC(=O)NC(CCCNC(=O)OCc1ccccc1)C(=O)NCc1ccccc1 (centres undefined)	> 100 µM (inactive)	> 100 µM (inactive)	> 100 µM (inactive)	> 100 µM (inactive)	> 100 µM (inactive)	> 100 µM (inactive)	> 100 µM (inactive)	> 100 µM (inactive)	> 100 µM (inactive)	> 100 µM (inactive)	> 100 µM (inactive)	> 100 µM (inactive)	> 100 µM (inactive)	> 100 µM (inactive)	> 100 µM (inactive)	> 100 µM (inactive)	41.8 µM (inactive)
C=C1CC2C(=O)N(c3ccccc3)C(=O)C2CC1n1[nH]c(=O)n(Cc2ccccc2)c1=O (centres undefined)	> 100 µM (inactive)	> 100 µM (inactive)	> 100 µM (inactive)	> 100 µM (inactive)	> 100 µM (inactive)	> 100 µM (inactive)	> 100 µM (inactive)	> 100 µM (inactive)	> 100 µM (inactive)	> 100 µM (inactive)	> 100 µM (inactive)	> 100 µM (inactive)	> 100 µM (inactive)	> 100 µM (inactive)	> 100 µM (inactive)	> 100 µM (inactive)	> 100 µM (inactive)
CC1(C)CCC(=O)c2c(O)ccc(O)c21		91.8 µM (inactive)	71.8 µM (inactive)	55.3 µM (inactive)	15.4 µM (inactive)	41.7 µM (inactive)	> 100 µM (inactive)	> 100 µM (inactive)	83.9 µM (inactive)	48.4 µM (inactive)	> 100 µM (inactive)	> 100 µM (inactive)	> 100 µM (inactive)	> 100 µM (inactive)	> 100 µM (inactive)	> 100 µM (inactive)	23.1 µM (inactive)
O=Cc1c[nH]c2c(=O)[nH]cnc12	> 100 µM (inactive)	> 100 µM (inactive)	> 100 µM (inactive)	> 100 µM (inactive)	> 100 µM (inactive)	> 100 µM (inactive)		> 100 µM (inactive)	> 100 µM (inactive)	> 100 µM (inactive)	> 100 µM (inactive)	> 100 µM (inactive)			> 100 µM (inactive)		> 100 µM (inactive)
CNC(=O)N(CCCC(NC(C)=O)C(=O)NCc1ccccc1)Cc1ccccc1 (centres undefined)	> 100 µM (inactive)	> 100 µM (inactive)	> 100 µM (inactive)	> 100 µM (inactive)	> 100 µM (inactive)	> 100 µM (inactive)	> 100 µM (inactive)	> 100 µM (inactive)	> 100 µM (inactive)	> 100 µM (inactive)	> 100 µM (inactive)	> 100 µM (inactive)	> 100 µM (inactive)	> 100 µM (inactive)	> 100 µM (inactive)	> 100 µM (inactive)	28.6 µM (inactive)
S=c1c2ccccc2c(=S)n2n1CC=CC2	> 100 µM (inactive)	> 100 µM (inactive)	> 100 µM (inactive)	> 100 µM (inactive)	> 100 µM (inactive)	> 100 µM (inactive)	> 100 µM (inactive)	> 100 µM (inactive)	> 100 µM (inactive)	> 100 µM (inactive)	> 100 µM (inactive)	> 100 µM (inactive)	> 100 µM (inactive)	> 100 µM (inactive)	> 100 µM (inactive)	> 100 µM (inactive)	68.1 µM (inactive)
O=c1/c(=C/c2ccco2)sc2nc3ccccc3n12	> 10 µM (inactive)	> 10 µM (inactive)	> 10 µM (inactive)	> 10 µM (inactive)	> 10 µM (inactive)	> 10 µM (inactive)	> 10 µM (inactive)	> 100 µM (inactive)	> 100 µM (inactive)	> 10 µM (inactive)	> 10 µM (inactive)	> 10 µM (inactive)	> 10 µM (inactive)	> 10 µM (inactive)	> 100 µM (inactive)	> 10 µM (inactive)	27 µM (inactive)
O=C1OCCC1C(O)C1c2ccccc2-c2ccccc21 (centres undefined)	> 100 µM (inactive)	> 100 µM (inactive)	> 100 µM (inactive)	> 100 µM (inactive)	> 100 µM (inactive)	> 100 µM (inactive)	> 100 µM (inactive)	> 100 µM (inactive)	> 100 µM (inactive)	> 100 µM (inactive)	> 100 µM (inactive)	> 100 µM (inactive)	> 100 µM (inactive)	> 100 µM (inactive)	> 100 µM (inactive)	> 100 µM (inactive)	> 100 µM (inactive)
CCC1(OC(C)=O)C(=O)OCc2c1cc1n(c2=O)Cc2cc3ccccc3nc2-1 (centres undefined)	0.163 µM (active)	2.45 µM (inactive)	1.07 µM (active)	4.2 µM (inactive)	24.8 µM (inactive)	0.264 µM (active)	0.869 µM (active)	2.28 µM (inactive)	7.6 µM (inactive)	5.83 µM (inactive)	7.52 µM (inactive)	3.44 µM (inactive)	41.4 µM (inactive)	2.37 µM (inactive)	35.1 µM (inactive)	0.289 µM (active)	1.48 µM (inactive)
Cc1cc(=O)oc2c1cc(OCC(=O)OCCN1CCCCC1)c1occ(C)c12	> 100 µM (inactive)	> 100 µM (inactive)	> 100 µM (inactive)	> 100 µM (inactive)	> 100 µM (inactive)	> 100 µM (inactive)	> 100 µM (inactive)		> 100 µM (inactive)	> 100 µM (inactive)		> 100 µM (inactive)	> 100 µM (inactive)	> 100 µM (inactive)		> 100 µM (inactive)	> 100 µM (inactive)
